Reference: PubChem BioAssay AID248 (DTP/NCI, 2004)
Several values for one entry are separate records, joined by “and”; a condition that tells them apart may be missing. Identical values can stand only once. Toxic doses and inconclusive results are not listed. No stated cut-off is given here; in the data, active means T/C of 150% or more; inactive means T/C below 125%.

Test system: L1210 leukemia ip in BDF1 mice, survival T/C
Test: NCI In Vivo Anticancer Drug Screen. Data for tumor model L1210 Leukemia (intraperitoneal) in B6D2F1 (BDF1) mice
Conditions: endpoint: mean survival time, higher = longer survival
Method in brief: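 Value reflects the ratio of survival in compound-treated mice to survival in vehicle-treated controls, with both groups carrying the same transplanted tumor.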

[1] = dose: 50.0 mg/kg/injection, schedule: Q01DX009 (ip), vehicle: Klucel (hydroxypropylcellulose) (HPC)
[2] = dose: 100.0 mg/kg/injection, schedule: Q01DX009 (ip), vehicle: Klucel (hydroxypropylcellulose) (HPC)
[3] = dose: 200.0 mg/kg/injection, schedule: Q01DX009 (ip), vehicle: Klucel (hydroxypropylcellulose) (HPC)
[4] = dose: 100.0 mg/kg/injection, schedule: Q01DX001 (ip), vehicle: saline
[5] = dose: 100.0 mg/kg/injection, schedule: Q04DX003 (ip), vehicle: Klucel (hydroxypropylcellulose) (HPC)
[6] = dose: 200.0 mg/kg/injection, schedule: Q04DX003 (ip), vehicle: Klucel (hydroxypropylcellulose) (HPC)
[7] = dose: 400.0 mg/kg/injection, schedule: Q04DX003 (ip), vehicle: Klucel (hydroxypropylcellulose) (HPC)
[8] = dose: 400.0 mg/kg/injection, schedule: Q01DX009 (ip), vehicle: Klucel (hydroxypropylcellulose) (HPC)
[9] = dose: 25.0 mg/kg/injection, schedule: Q01DX009 (ip), vehicle: saline with Tween-80
[10] = dose: 100.0 mg/kg/injection, schedule: Q04DX003 (ip), vehicle: saline
[11] = dose: 200.0 mg/kg/injection, schedule: Q04DX003 (ip), vehicle: saline
[12] = dose: 400.0 mg/kg/injection, schedule: Q04DX003 (ip), vehicle: saline
[13] = dose: 100.0 mg/kg/injection, schedule: Q01DX009 (ip), vehicle: saline with Tween-80
[14] = dose: 200.0 mg/kg/injection, schedule: Q01DX009 (ip), vehicle: saline with Tween-80
[15] = dose: 400.0 mg/kg/injection, schedule: Q01DX009 (ip), vehicle: saline with Tween-80
[16] = dose: 100.0 mg/kg/injection, schedule: Q04DX003 (ip), vehicle: saline with Tween-80
[17] = dose: 200.0 mg/kg/injection, schedule: Q04DX003 (ip), vehicle: saline with Tween-80
[18] = dose: 50.0 mg/kg/injection, schedule: Q01DX009 (ip), vehicle: saline with Tween-80

Measured: T/C

O=C(/C=N/O)Nc1ccc([N+](=O)[O-])cc1
inactive: dose: 100.0 mg/kg/injection, schedule: Q04DX002 (ip), vehicle: Klucel (hydroxypropylcellulose) (HPC) 92 % of control | dose: 200.0 mg/kg/injection, schedule: Q04DX002 (ip), vehicle: Klucel (hydroxypropylcellulose) (HPC) 100 % of control | dose: 400.0 mg/kg/injection, schedule: Q04DX002 (ip), vehicle: Klucel (hydroxypropylcellulose) (HPC) 92 % of control

COC(=O)CC[C@@H](C)[C@H]1CC[C@H]2[C@@H]3CC[C@@H]4C[C@H](O)CC[C@]4(C)[C@H]3CC[C@]12C
inactive: dose: 100.0 mg/kg/injection, schedule: Q01DX009 (sc), vehicle: olive oil, sesame oil, peanut oil 107 % of control | dose: 200.0 mg/kg/injection, schedule: Q01DX009 (sc), vehicle: olive oil, sesame oil, peanut oil 102 % of control | dose: 400.0 mg/kg/injection, schedule: Q01DX009 (sc), vehicle: olive oil, sesame oil, peanut oil 95 % of control

O=P(NC12CC3CC(CC(C3)C1)C2)(NC12CC3CC(CC(C3)C1)C2)N(CCCl)CCCl
inactive: [1] 112 % of control | dose: 100.0 mg/kg/injection, schedule: Q01DX001 (ip), vehicle: Klucel (hydroxypropylcellulose) (HPC) 105 % of control | [2] 104 % of control | dose: 200.0 mg/kg/injection, schedule: Q01DX001 (ip), vehicle: Klucel (hydroxypropylcellulose) (HPC) 94 % of control | [3] 89 % of control | dose: 400.0 mg/kg/injection, schedule: Q01DX001 (ip), vehicle: Klucel (hydroxypropylcellulose) (HPC) 98 % of control

CC(C)(O)C(CO)c1ccccc1 (stereo unspecified)
inactive: [4] 96 % of control

Cc1ccc(C(=O)C=Nc2ccc(O)cc2)cc1
inactive: dose: 12.5 mg/kg/injection, schedule: Q04DX002 (ip), vehicle: Klucel (hydroxypropylcellulose) (HPC) 94 % of control | dose: 25.0 mg/kg/injection, schedule: Q04DX002 (ip), vehicle: Klucel (hydroxypropylcellulose) (HPC) 97 % of control | dose: 50.0 mg/kg/injection, schedule: Q04DX002 (ip), vehicle: Klucel (hydroxypropylcellulose) (HPC) 102 % of control

Cc1ccc(Cl)cc1NC(=O)Nc1ccccc1Cl
inactive: [2] 92 % of control | [5] 101 % of control | [3] 91 % of control | [6] 95 % of control | [7] 93 % of control

COc1ccc(C2(OC)Oc3cc(OC)ccc3C(=O)C2(O)OC)cc1 (stereo unspecified)
inactive: dose: 50.0 mg/kg/injection, schedule: Q01DX001 (ip), vehicle: saline 98 % of control | [4] 104 % of control

O=[N+]([O-])c1cccc(C=Nc2ccccc2F)c1
inactive: [2] 94 % of control | [3] 98 % of control | [8] 98 % of control

CCc1nc(N)nc(N)c1-c1ccc(Cl)cc1.[O]=[Zn]
inactive: dose: 15.0 mg/kg/injection, schedule: Q01DX015 (ip), vehicle: carboxymethylcellulose (CMC) 96 % of control | dose: 30.0 mg/kg/injection, schedule: Q01DX015 (ip), vehicle: carboxymethylcellulose (CMC) 96 % of control | dose: 60.0 mg/kg/injection, schedule: Q01DX015 (ip), vehicle: carboxymethylcellulose (CMC) 123 % of control | dose: 100.0 mg/kg/injection, schedule: Q01DX001 (ip), vehicle: carboxymethylcellulose (CMC) 92 % of control | dose: 120.0 mg/kg/injection, schedule: Q01DX015 (ip), vehicle: carboxymethylcellulose (CMC) 124 % of control | dose: 200.0 mg/kg/injection, schedule: Q01DX001 (ip), vehicle: carboxymethylcellulose (CMC) 93 % of control

CCCC[P+](CCCC)(CCCC)C(C)C
inactive: dose: 12.0 mg/kg/injection, schedule: Q01DX009 (ip), vehicle: saline with Tween-80 97 % of control | [9] 97 % of control | dose: 25.0 mg/kg/injection, schedule: Q04DX003 (ip), vehicle: saline with Tween-80 101 % of control | dose: 50.0 mg/kg/injection, schedule: Q04DX003 (ip), vehicle: saline with Tween-80 99 % of control

C1=C[P+](c2ccccc2)(c2ccccc2)CC[P+]1(c1ccccc1)c1ccccc1
inactive: dose: 75.0 mg/kg/injection, schedule: Q01DX001 (ip), vehicle: other 98 % of control | dose: 150.0 mg/kg/injection, schedule: Q01DX001 (ip), vehicle: other 95 % of control

CCOC(=O)N/N=C/c1ccccc1O
inactive: dose: 75.0 mg/kg/injection, schedule: Q01DX001 (ip), vehicle: carboxymethylcellulose (CMC) 103 % of control | dose: 150.0 mg/kg/injection, schedule: Q01DX001 (ip), vehicle: carboxymethylcellulose (CMC) 104 % of control | dose: 300.0 mg/kg/injection, schedule: Q01DX001 (ip), vehicle: carboxymethylcellulose (CMC) 97 % of control

O=C1OC(=O)C2C3C=CC(C4C=CC43)C12 (stereo unspecified)
inactive: dose: 100.0 mg/kg/injection, schedule: Q01DX009 (ip), vehicle: saline 93 % of control | dose: 100.0 mg/kg/injection, schedule: Q04DX002 (ip), vehicle: saline with Tween-80 103 % of control | [10] 86 % of control | dose: 200.0 mg/kg/injection, schedule: Q01DX009 (ip), vehicle: saline 102 % of control | dose: 200.0 mg/kg/injection, schedule: Q04DX002 (ip), vehicle: saline with Tween-80 100 % of control | [11] 93 % of control | [12] 100 % of control

COC(=O)C1=CC2c3ccccc3C1c1ccccc12
inactive: [13] 89 % of control | [14] 105 % of control | [15] 98 % of control

O=S(=O)(O)c1ccc(N=Nc2c(O)cc(O)cc2O)cc1
inactive: [10] 94 % of control | [11] 97 % of control | [12] 93 % of control

CC(C)N(C(=O)Nc1cccc(OC(=O)N(C)C)c1)C(C)C
inactive: [16] 94 % of control | [17] 88 % of control | dose: 400.0 mg/kg/injection, schedule: Q04DX003 (ip), vehicle: saline with Tween-80 96 % of control

c1ccc(NNC(c2ccccc2)(c2ccccc2)c2ccccc2)cc1
inactive: [2] 101 % of control | [5] 101 % of control | [3] 98 % of control | [6] 95 % of control | [8] 92 % of control | [7] 95 % of control

C1=C(c2ccccc2)S/C(=C/c2ccccc2)S1
inactive: [9] 96 % of control | [18] 96 % of control | dose: 50.0 mg/kg/injection, schedule: Q04DX003 (ip), vehicle: saline 88 % of control | [4] 93 % of control | [13] 94 % of control | [10] 87 % of control | dose: 200.0 mg/kg/injection, schedule: Q01DX001 (ip), vehicle: saline 88 % of control | dose: 400.0 mg/kg/injection, schedule: Q01DX001 (ip), vehicle: saline 88 % of control

S=P(Nc1ccccc1)(Nc1ccccc1)Nc1ccccc1
inactive: [1] 96 % of control | [2] 98 % of control | [3] 98 % of control

O=[N+]([O-])c1ccc2c(ccn2C2OCC(O)C(O)C2O)c1 (stereo unspecified)
inactive: dose: 25.0 mg/kg/injection, schedule: Q01DX005 (ip), vehicle: saline 94 % of control and 96 % of control | dose: 50.0 mg/kg/injection, schedule: Q01DX005 (ip), vehicle: saline 96 % of control and 92 % of control | [18] 98 % of control | dose: 100.0 mg/kg/injection, schedule: Q01DX005 (ip), vehicle: saline 93 % of control and 91 % of control | [13] 98 % of control | [14] 102 % of control | [15] 111 % of control

Cc1cccc(N2C(=O)C3C(C2=O)C2(Cl)C(Cl)=C(Cl)C3(Cl)C2(Cl)Cl)c1C (stereo unspecified)
inactive: dose: 3.0 mg/kg/injection, schedule: Q01DX009 (ip), vehicle: Klucel (hydroxypropylcellulose) (HPC) 96 % of control | dose: 6.0 mg/kg/injection, schedule: Q01DX009 (ip), vehicle: Klucel (hydroxypropylcellulose) (HPC) 102 % of control | dose: 12.5 mg/kg/injection, schedule: Q01DX009 (ip), vehicle: Klucel (hydroxypropylcellulose) (HPC) 111 % of control | dose: 25.0 mg/kg/injection, schedule: Q01DX009 (ip), vehicle: Klucel (hydroxypropylcellulose) (HPC) 107 % of control | [1] 103 % of control

O=C1OC(=O)c2cscc21
inactive: [16] 88 % of control | [17] 94 % of control

NCCSCC(N)C(=O)O (stereo unspecified)
inactive: dose: 100.0 mg/kg/injection, schedule: Q04DX002 (ip), vehicle: saline 92 % of control | dose: 200.0 mg/kg/injection, schedule: Q04DX002 (ip), vehicle: saline 92 % of control | dose: 400.0 mg/kg/injection, schedule: Q04DX002 (ip), vehicle: saline 109 % of control
